{"source": "paper PMC8240349", "about": "(Journal of Traditional and Complementary Medicine, 2021)", "origin": "cited, not measured here", "test_system": "CCA", "conditions": "cited from earlier work"}
{"molecule": "C=C1CCC[C@]2(C)CC[C@@H](C(C)(C)O)C[C@@H]12", "note": "[β-eudesmol]", "values": [{"measurement": "IC50, anti-CCA activity", "setting": "bioassay-guided activity", "value": "20 to 25", "unit": "µg/mL"}]}
{"molecule": "CC1=CCC[C@H](C)[C@@]12CC[C@@H](C(C)(C)O)C2", "note": "[hinesol]", "values": [{"measurement": "activity (anti-CCA)", "value": "weak activity"}]}
